Data taken from publication PMC7251097, “Aspartate/asparagine-β-hydroxylase: a high-throughput mass spectrometric assay for discovery of small molecule inhibitors” (Scientific Reports, 2020).
Where “and” joins values, the source holds several entries; their conditions need not be identical. Identical values can stand only once. Counter-ions that a name gives are not always drawn. Like-named read-outs stand apart in the source and are kept apart here.

Molecular target: T1, His6-AspH315–758 (human aspartate/asparagine-β-hydroxylase, AspH) (Homo sapiens, UniProt Q12797)
T1 construct: N-Terminally His6-tagged human AspH315–758 (His6-AspH315–758) was produced in E. coli BL21 (DE3) cells; made in house; host or cells: E. coli BL21 (DE3), pET-28a(+) vector
T1 sequence (Q12797 315-758): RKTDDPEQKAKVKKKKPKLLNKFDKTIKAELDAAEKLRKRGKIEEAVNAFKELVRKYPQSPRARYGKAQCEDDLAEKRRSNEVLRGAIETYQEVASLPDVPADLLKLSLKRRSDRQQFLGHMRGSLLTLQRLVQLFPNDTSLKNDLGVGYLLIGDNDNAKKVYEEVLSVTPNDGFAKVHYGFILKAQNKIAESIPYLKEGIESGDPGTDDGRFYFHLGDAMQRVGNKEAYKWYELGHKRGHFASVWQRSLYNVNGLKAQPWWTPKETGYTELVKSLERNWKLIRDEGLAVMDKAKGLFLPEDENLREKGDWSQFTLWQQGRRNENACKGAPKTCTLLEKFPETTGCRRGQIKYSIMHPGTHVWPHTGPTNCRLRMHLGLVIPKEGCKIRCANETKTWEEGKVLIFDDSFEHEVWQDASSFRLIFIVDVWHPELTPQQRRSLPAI
Assay: SPE-MS AspH inhibition assay (LOPAC screen at fixed 20 μM and IC50 dose-response), hydroxylation of cyclic peptide hFX-CP101–119
Type: biochemical

[1] = LOPAC compound at fixed 20 uM, plate 1, normalised to DMSO and 2,4-PDCA controls
[2] = LOPAC compound at fixed 20 uM, substrate conversion, plate 1
[3] = LOPAC compound at 20uM, plate 2, conversion of substrate peptide
[4] = LOPAC compound at 20uM, plate 2, normalised to DMSO and 2,4-PDCA controls
[5] = LOPAC compound at 20uM, plate 3, conversion of substrate peptide
[6] = LOPAC compound at 20uM, plate 2, normalised to DMSO and 2,4-PDCA controls, read-out: Plate 2 (% inhibition)
[7] = LOPAC Plate 4, compound at 20 uM
[8] = LOPAC Plate 4, compound at 20 uM, substrate conversion

## CCCn1c(=O)c2[nH]c(-c3ccc(S(=O)(=O)O)cc3)nc2n(CCC)c1=O [1,3-Dipropyl-8-p-sulfophenylxanthine]
[1]
  Plate 1 (% inhibition): -2.36%
[2]
  Plate 1 (% conversion): 36.66%

## OC[C@H]1NC[C@@H](O)[C@@H]1O [1,4-Dideoxy-1,4-imino-D-arabinitol]
[3]
  Plate 2 (% conversion): 35.43%
[4]
  Plate 2 (% inhibition): 1.56%

## Oc1cccc2c(O)nccc12 [1,5-Isoquinolinediol]
[5]
  Plate 3 (% conversion): 40.11%

## Cn1c(=O)[nH]c2ncn(C)c2c1=O [1,7-Dimethylxanthine]
[3]
  Plate 2 (% conversion): 35.50%
[6]
  inhibition at 20 µM: 1.36%

## NCCCCCCCCCCN [1,10-Diaminodecane]
[3]
  Plate 2 (% conversion): 36.39%
[6]
  inhibition at 20 µM: -1.3%

## O.c1cnc2c(c1)ccc1cccnc12 [1,10-Phenanthroline monohydrate, reference compound]
  % conversion: 3.10%
  inhibition at 20 µM: 97.8%
read-out: Inhibition at 20 µM [%]
  inhibition at 20 µM: 97.8%

## Cl.c1ccc2c(N3CCNCC3)cccc2c1 [1-(1-Naphthyl)piperazine hydrochloride]
  % conversion: 30.74%

## Nn1nnc2ccccc21 [1-Aminobenzotriazole]
[1]
  Plate 1 (% inhibition): -4.79%
[2]
  Plate 1 (% conversion): 37.48%

## OC[C@H]1NC[C@H](O)[C@@H](O)[C@@H]1O [1-Deoxynojirimycin hydrochloride]
read-out: Plate 2 (% inhibition)
  inhibition at 20 µM: 2.25%

## Cl.Cl.Cn1cnc(CCN)c1 [1-Methylhistamine dihydrochloride]
  Plate 3 (% conversion): 37.48%

## Cn1ccnc1 [1-Methylimidazole]
  Plate 3 (% conversion): 20.25%

## S=C(Nc1ccccc1)Nc1nccs1 [1-Phenyl-3-(2-thiazolyl)-2-thiourea]
  Plate 3 (% conversion): 40.98%

## N=C(N)NC(=N)Nc1ccccc1 [1-Phenylbiguanide]
[7]
  % inhibition: 12.13%
[8]
  % conversion: 32.33%

## FC(F)(F)c1ccccc1-n1ccnc1 [1-[2-(Trifluoromethyl)phenyl]imidazole]
[8]
  % conversion: 26.55%

## c1ccc(-c2ccccn2)nc1 [2,2-Bipyridyl]
  Plate 2 (% conversion): 27.94%
20 µM
  Plate 2 (% inhibition): 23.93%

## CC(=O)C(C)=NO [2,3-Butanedione monoxime]
[1]
  Plate 1 (% inhibition): -3.18%
[2]
  Plate 1 (% conversion): 36.94%

## CC(=O)C(C)=O [2,3-Butanedione]
[3]
  Plate 2 (% conversion): 38.17%
[6]
  inhibition at 20 µM: -6.62%

## COC1=C(OC)C(=O)c2ccccc2C1=O [2,3-Dimethoxy-1,4-naphthoquinone]
  Plate 2 (% conversion): 33.76%
20 µM
  Plate 2 (% inhibition): 6.56%

## Nc1ccn([C@H]2CC[C@@H](CO)O2)c(=O)n1 [2,3-dideoxycytidine]
[3]
  Plate 2 (% conversion): 37.68%
[4]
  Plate 2 (% inhibition): -5.15%

## O=C(O)c1ccnc(C(=O)O)c1 [2,4-pyridinedicarboxylic acid]
100 uM 2,4-PDCA control wells (columns 1, 2), plate 2
  Plate 2 (% inhibition): 100.30% and 100.62% and 100.70%
LOPAC Plate 3, 100 uM 2,4-PDCA control wells (columns 1, 2)
  % inhibition: 99.57% and 99.80%
Plate 1
  Plate 1 (% inhibition): 100.60% and 99.95% and 100.29%
Plate 5, 100 uM 2,4-PDCA controls, plate columns 1, 2
  Plate 5 (% conversion), 2,4-PDCA control: 2.34%

## Nc1nc(Cl)nc2c1ncn2[C@@H]1O[C@H](CO)[C@@H](O)[C@H]1O [2-Chloroadenosine]
[1]
  Plate 1 (% inhibition): -4.87%
[2]
  Plate 1 (% conversion): 37.51%

## NCC(O)(CS(=O)(=O)O)c1ccc(Cl)cc1 (stereo not shown) [2-Hydroxysaclofen]
[1]
  Plate 1 (% inhibition): -6.82%
[2]
  Plate 1 (% conversion): 38.16%

## Cc1[nH]c2ccc(O)cc2c1CCN.O=C(O)/C=C\C(=O)O [2-Methyl-5-hydroxytryptamine maleate]
  Plate 3 (% conversion): 35.71%

## Nc1nc(Nc2ccccc2)nc2c1ncn2[C@@H]1O[C@H](CO)[C@@H](O)[C@H]1O [2-Phenylaminoadenosine]
[7]
  % inhibition: -10.62%
[8]
  % conversion: 40.09%

## COc1cc2c(cc1O)CC[C@@H]1[C@@H]2CC[C@]2(C)[C@@H](O)CC[C@@H]12 [2-methoxyestradiol]
[5]
  Plate 3 (% conversion): 41.59%

## O=c1oc(Cl)c(Cl)c2ccccc12 [3,4-Dichloroisocoumarin]
  Plate 2 (% conversion): 29.65%
[4]
  Plate 2 (% inhibition): 18.85%

## O=C(O)Cc1ccc(O)c(O)c1 [3,4-Dihydroxyphenylacetic acid, reference compound]
AspH activity, fixed compound concentration 20 μM, initial LOPAC screen, 0.5%v/v DMSO, read-out: Inhibition at 20 µM [%]
  inhibition at 20 µM: 98.6%

## O=[N+]([O-])c1cc(O)c(O)c([N+](=O)[O-])c1 [3,5-Dinitrocatechol, reference compound]
  Plate 2 (% conversion): 2.07%
20 µM
  Plate 2 (% inhibition): 101.20%

## NCCCS(=O)(=O)O.[Na] [3-Amino-1-propanesulfonic acid sodium]
[1]
  Plate 1 (% inhibition): -7.08%
[2]
  Plate 1 (% conversion): 38.25%

## N#CCCN.N#CCCN.O=C(O)/C=C/C(=O)O [3-Aminopropionitrile fumarate]
[1]
  Plate 1 (% inhibition): 48.97%
[2]
  Plate 1 (% conversion): 19.43%

## NCCCP(=O)(O)O [3-Aminopropylphosphonic acid]
  Plate 1 (% conversion): 37.53%
  Plate 1 (% inhibition): -4.94%

## Cc1cn([C@H]2C[C@H](N=[N+]=[N-])[C@@H](CO)O2)c(=O)[nH]c1=O [3-Azido-3-deoxythymidine]
[1]
  Plate 1 (% inhibition): -7.24%
[2]
  Plate 1 (% conversion): 38.30%

## O=[N+]([O-])c1cccc2c(Br)n[nH]c12 [3-Bromo-7-nitroindazole]
[1]
  Plate 1 (% inhibition): 1.81%
[2]
  Plate 1 (% conversion): 35.26%

## N[C@@H](Cc1ccc(O)c(I)c1)C(=O)O [3-Iodo-L-tyrosine]
[5]
  Plate 3 (% conversion): 30.44%

## CC(C)Cn1c(=O)n(C)c(=O)c2[nH]cnc21 [3-Isobutyl-1-methylxanthine]
  Plate 3 (% conversion): 38.13%

## Nc1c[n+](N2CCOCC2)no1.[Cl-] [3-Morpholinosydnonimine hydrochloride]
[1]
  Plate 1 (% inhibition): 64.67%
[2]
  Plate 1 (% conversion): 14.15%

## O=C(O)CC[N+](=O)[O-] [3-Nitropropionic acid]
  Plate 3 (% conversion): 32.27%

## CCCn1c(=O)[nH]c(=O)c2nc[nH]c21 [3-n-Propylxanthine]
[5]
  Plate 3 (% conversion): 38.43%

## Nc1ccc2c3c(cccc13)C(=O)NC2=O [4-Amino-1,8-naphthalimide]
[1]
  Plate 1 (% inhibition): -1.00%
[2]
  Plate 1 (% conversion): 36.21%

## N=C(N)c1ccc(N)cc1 [4-Aminobenzamidine dihydrochloride]
[1]
  Plate 1 (% inhibition): -9.05%
[2]
  Plate 1 (% conversion): 38.91%

## Nc1ccncc1 [4-Aminopyridine]
  Plate 1 (% conversion): 34.98%

## C[N+]1(C)CCC(OC(=O)C(c2ccccc2)c2ccccc2)CC1.[I-] [4-DAMP]
[7]
  % inhibition: -3.63%
[8]
  % conversion: 37.71%

## COc1cc(CC(=O)O)ccc1O [4-Hydroxy-3-methoxyphenylacetic acid]
  Plate 2 (% conversion): 38.57%
20 µM
  Plate 2 (% inhibition): -7.80%

## Cl.NCCc1ccc(O)cc1 [4-Hydroxyphenethylamine hydrochloride]
[7]
  % inhibition: -7.46%
[8]
  % conversion: 39.01%

## O=C(O)C=Cc1c[nH]cn1 [4-Imidazoleacrylic acid]
  % conversion: 20.39%

## Cl.OCc1c[nH]cn1 [4-Imidazolemethanol hydrochloride]
  Plate 2 (% conversion): 36.75%
20 µM
  Plate 2 (% inhibition): -2.37%

## O=C1NC(=O)C(c2ccccc2)(c2ccccc2)N1 [5,5-Diphenylhydantoin]
[3]
  Plate 2 (% conversion): 35.84%
[6]
  inhibition at 20 µM: 0.33%

## O=C(O)c1cc(=O)c2c(Cl)cc(Cl)cc2[nH]1 [5,7-Dichlorokynurenic acid]
[3]
  Plate 2 (% conversion): 35.63%
[4]
  Plate 2 (% inhibition): 0.98%

## CN(C)c1nc(N)c(C(=O)NC(=N)N)nc1Cl [5-(N,N-Dimethyl)amiloride hydrochloride]
[1]
  Plate 1 (% inhibition): -6.54%
[2]
  Plate 1 (% conversion): 38.07%

## N=C(N)NC(=O)c1nc(Cl)c(N2CCCCCC2)nc1N [5-(N,N-hexamethylene)amiloride]
[1]
  Plate 1 (% inhibition): -28.14%
[2]
  Plate 1 (% conversion): 45.32%

## Cl.NCCCCC(=O)O [5-Aminovaleric acid hydrochloride]
[1]
  Plate 1 (% inhibition): 15.05%
[2]
  Plate 1 (% conversion): 30.82%

## NCCc1c[nH]c2ccc(C(N)=O)cc12.O=C(O)/C=C\C(=O)O [5-Carboxamidotryptamine maleate]
  Plate 2 (% conversion): 35.62%
20 µM
  Plate 2 (% inhibition): 0.99%

## O=C(O)c1cc2cc(F)ccc2[nH]1 [5-Fluoroindole-2-carboxylic acid]
  Plate 1 (% conversion): 31.84%
  Plate 1 (% inhibition): 12.00%

## O=c1[nH]cc(F)c(=O)[nH]1 [5-Fluorouracil]
[3]
  Plate 2 (% conversion): 36.11%
[6]
  inhibition at 20 µM: -0.46%

## N[C@@H](Cc1c[nH]c2ccc(O)cc12)C(=O)O [5-Hydroxy-L-tryptophan]
[3]
  Plate 2 (% conversion): 37.59%
[6]
  inhibition at 20 µM: -4.87%

## O=C(O)Cc1c[nH]c2ccc(O)cc12 [5-Hydroxyindolacetic acid]
[4]
  Plate 2 (% inhibition): -3.79%

## CCNC(=O)[C@H]1O[C@@H](n2cnc3c(N)ncnc32)[C@H](O)[C@@H]1O [5-N-Ethylcarboxamidoadenosine]
[3]
  Plate 2 (% conversion): 35.71%
[4]
  Plate 2 (% inhibition): 0.73%
